The results in this text go back to patent US20050209256A1, “Novel beta-turn mimetics as calcitonin gene related peptide receptor antagonists” (priority 2004, published 2005).

This assay deals with T1, human CGRP receptor (Homo sapiens, UniProt O60894+Q16602).
T1 construct: SK-N-MC cells that endogenously express the human CGRP receptor; endogenous in cells; host or cells: SK-N-MC cells (membrane homogenates)
Put plainly: Radioligand binding assay, [125I]-CGRP competition on SK-N-MC cell homogenates. The settings on record: Binding data, [125I]-CGRP 40 pM, room temperature. As to the method: Tissue culture. SK-N-MC cells were grown at 37° C. in 5% CO2 as a monolayer in medium consisting of MEM with Earle's salts and L-glutamine (Gibco) supplemented with 10% fetal bovine serum (Gibco).
Radioligand binding assays. Cells were rinsed twice with phosphate-buffered saline (155 mM NaCl, 3.3 mM Na2HPO4, 1.1 mM KH2PO4, pH 7.4), and incubated for 5-10 min. at 4° C. in hypotonic lysis buffer consisting of 10 mM Tris (pH 7.4) and 5 mM EDTA. Cells were transferred from plates to polypropylene tubes (16×100 mm), homogenized and centrifuged at 32,000×g for 30 min. Pellets were resuspended in buffer consisting of 50 mM Tris (pH 7.4) and 1 mM EDTA, homogenized, and centrifuged again at 32,000×g for 30 min. Pellets were resuspended in 100 mM Tris-Cl pH 7.5, 10 mM MgCl2, 0.1% mammalian protease inhibitor cocktail (Sigma) and stored at −80° C. until needed. On the day of an experiment, homogenates were thawed and homogenized again. Binding of [^125I]-CGRP (NEN) was carried out in buffer containing 50 mM Tris-Cl pH 7.5, 5 mM MgCl2, 0.5% BSA. Homogenates (3.5 μg protein/well) were incubated with competitor compounds (solubilized in 100% DMSO at 100× their final assay concentrations) for one hour at room temperature. Then [^125I]-CGRP was added (40 pM final concentration) and the reaction incubated for one additional hour at room temperature. Assays were stopped by addition of cold wash buffer (20 mM Tris-Cl pH 7.5, 0.1% BSA) immediately followed by filtration over glass fiber filters (Whatman GF/B) previously soaked in 0.5% PEI. Non-specific binding was defined with 100 nM CGRP.
In turn, `CC(=O)c1ccc(NC(=O)N2CCC(=O)N3[C@@H](C4CCCCC4)C(=O)N(CCc4ccccc4Cl)C[C@H]23)cc1` [Compound 116, (6S,9aS)-8-[2-(2-Chloro-phenyl)-ethyl]-6-cyclohexyl-4,7-dioxo-hexahydro-pyrazino[1,2-a]pyrimidine-1-carboxylic acid (4-acetyl-phenyl)-amide] displayed an IC50 of 2580 nM.
Compound `CC(=O)c1ccc(NC(=O)N2CCC(=O)N3[C@@H](C4CCCCC4)C(=O)N(CCc4ccc(F)cc4)C[C@H]23)cc1` [Compound 122, (6S,9aS)-6-Cyclohexyl-8-[2-(4-fluoro-phenyl)-ethyl]-4,7-dioxo-hexahydro-pyrazino[1,2-a]pyrimidine-1-carboxylic acid (4-acetyl-phenyl)-amide] registered an IC50 of 890 nM.
The result for `CC(=O)c1ccc(NC(=O)N2CCC(=O)N3[C@@H](C4CCCCC4)C(=O)N(CCc4ccncc4)C[C@H]23)cc1` [Compound 132, (6S,9aS)-6-Cyclohexyl-4,7-dioxo-8-(2-pyridin-4-yl-ethyl)-hexahydro-pyrazino[1,2-a]pyrimidine-1-carboxylic acid (4-acetyl-phenyl)-amide] reads 8000 nM; that for `CC(=O)c1ccc(NC(=O)N2CCC(=O)N3[C@@H](C4CCCCC4)C(=O)N(CCc4cccc(Cl)c4)C[C@H]23)cc1` [Compound 135, (6S,9aS)-8-[2-(3-Chloro-phenyl)-ethyl]-6-cyclohexyl-4,7-dioxo-hexahydro-pyrazino[1,2-a]pyrimidine-1-carboxylic acid (4-acetyl-phenyl)-amide], 7070 nM; that for `CC(=O)c1ccc(NC(=O)N2CCC(=O)N3[C@@H](C4CCCCC4)C(=O)N(CCc4cccs4)C[C@H]23)cc1` [Compound 138, (6S,9aS)-6-Cyclohexyl-4,7-dioxo-8-(2-thiophen-2-yl-ethyl)-hexahydro-pyrazino[1,2-a]pyrimidine-1-carboxylic acid (4-acetyl-phenyl)-amide], 87 nM.
For `CC(=O)c1ccc(NC(=O)N2CCC(=O)N3[C@@H](C4CCCCC4)C(=O)N(CCc4cccnc4)C[C@H]23)cc1` [Compound 140, (6S,9aS)-6-Cyclohexyl-4,7-dioxo-8-(2-pyridin-3-yl-ethyl)-hexahydro-pyrazino[1,2-a]pyrimidine-1-carboxylic acid (4-acetyl-phenyl)-amide] the value was 2440 nM.
In turn, `CC(=O)c1ccc(OC(=O)N2CCC(=O)N3[C@@H]2CN(CCc2ccccc2)C(=O)[C@@H]3CC2CCCCC2)c(C)c1` [Compound 144, (6S,9aS)-6-Cyclohexylmethyl-4,7-dioxo-8-phenethyl-hexahydro-pyrazino[1,2-a]pyrimidine-1-carboxylic acid 4-acetyl-2-methyl-phenyl ester] gave an IC50 of 7400 nM.
The result for `CC(O)c1ccc(NC(=O)N2CCC(=O)N3[C@@H]2CN(CCc2ccccc2)C(=O)[C@@H]3CC2CCCCC2)cc1` (stereo partly drawn) [Compound 145, (6S,9aS)-6-Cyclohexylmethyl-4,7-dioxo-8-phenethyl-hexahydro-pyrazino[1,2-a]pyrimidine-1-carboxylic acid [4-(1-hydroxy-ethyl)-phenyl]-amide] reads 2730 nM.
For `CC(=O)c1ccc(OC(=O)N2CCC(=O)N3[C@@H]2CN(CCc2ccccc2)C(=O)[C@@H]3CC2CCCCC2)cc1C` [Compound 146, (6S,9aS)-6-Cyclohexylmethyl-4,7-dioxo-8-phenethyl-hexahydro-pyrazino[1,2-a]pyrimidine-1-carboxylic acid 4-acetyl-3-methyl-phenyl ester] the value was 364 nM; for `CC(=O)c1ccc(OC(=O)N2CCC(=O)N3[C@@H](C4CCCCC4)C(=O)N(CCc4ccccc4)C[C@H]23)cc1C` [Compound 148, (6S,9aS)-6-Cyclohexyl-4,7-dioxo-8-phenethyl-hexahydro-pyrazino[1,2-a]pyrimidine-1-carboxylic acid 4-acetyl-3-methyl-phenyl ester], 3900 nM.
`CC(=O)c1ccc(OC(=O)N2CCC(=O)N3[C@@H](C4CCCCC4)C(=O)N(CCc4ccccc4)C[C@H]23)cc1` [Compound 149, (6S,9aS)-6-Cyclohexyl-4,7-dioxo-8-phenethyl-hexahydro-pyrazino[1,2-a]pyrimidine-1-carboxylic acid 4-acetyl-phenyl ester]: the IC50 was 8560 nM.
The result for `O=C1COc2cc(OC(=O)N3CCC(=O)N4[C@@H](C5CCCCC5)C(=O)N(CCc5ccccc5)C[C@H]34)ccc21` [Compound 150, (6S,9aS)-6-Cyclohexyl-4,7-dioxo-8-phenethyl-hexahydro-pyrazino[1,2-a]pyrimidine-1-carboxylic acid 3-oxo-2,3-dihydro-benzofuran-6-yl ester] reads 1730 nM; that for `CC(=O)c1ccc(NC(=O)N2CCC(=O)N3[C@@H](c4ccc(F)c(F)c4)C(=O)N(CCc4cccc(F)c4)C[C@H]23)cc1` [Compound 151, 6-(3,4-Difluoro-phenyl)-8-[2-(3-fluoro-phenyl)-ethyl]-4,7-dioxo-hexahydro-pyrazino [1,2-a]pyrimidine-1-carboxylic acid (4-acetyl-phenyl)-amide], 39 nM.
For `CC(=O)c1ccc(NC(=O)N2CCC(=O)N3[C@@H](c4cccc(F)c4)C(=O)N(CCc4cccc(F)c4)C[C@H]23)cc1` [Compound 152, (6S,9aS)-6-(3-Fluoro-phenyl)-8-[2-(3-fluoro-phenyl)-ethyl]-4,7-dioxo-hexahydro-pyrazino[1,2-a]pyrimidine-1-carboxylic acid (4-acetyl-phenyl)-amide] the value was 159 nM; for `CC(=O)c1ccc(NC(=O)N2CCC(=O)N3[C@@H](c4ccc(F)cc4F)C(=O)N(CCc4cccc(F)c4)C[C@H]23)cc1` [Compound 153, (6S,9aS)-6-(2,4-Difluoro-phenyl)-8-[2-(3-fluoro-phenyl)-ethyl]-4,7-dioxo-hexahydro-pyrazino[1,2-a]pyrimidine-1-carboxylic acid (4-acetyl-phenyl)-amide], 320 nM.
In turn, `CC(=O)c1ccc(NC(=O)N2CCC(=O)N3[C@@H](c4cccc(F)c4F)C(=O)N(CCc4cccc(F)c4)C[C@H]23)cc1` [Compound 154, (6S,9aS)-6-(2,3-Difluoro-phenyl)-8-[2-(3-fluoro-phenyl)-ethyl]-4,7-dioxo-hexahydro-pyrazino[1,2-a]pyrimidine-1-carboxylic acid (4-acetyl-phenyl)-amide] came in with an IC50 of 363 nM.

As a reminder, the IC50 is the midpoint of a concentration-inhibition curve. A higher IC50 goes with weaker potency in that assay.
